Measured values taken from US11370763B2, “Compounds and compositions for treating conditions associated with NLRP activity” (Novartis AG, priority 2017, dated 2022).
Like-named read-outs stand apart in the source and are kept apart here.

System: IL-1β production in PMA-differentiated THP-1 cells
Experiment: IL-1β production in PMA-differentiated THP-1 cells stimulated with gramicidin (hTHP-1 assay containing 2% fetal bovine serum; Procedures 1-3)
Type: cell-based, human
Details: read-out: hTHP-1 IC50 (Average IC50 of compounds in hTHP-1 assay)
Method: The following protocol is suitable for testing the activity of the compounds disclosed herein.
Procedure 1: IL-1β Production in PMA-Differentiated THP-1 Cells Stimulated with Gramicidin
THP-1 cells were purchased from the American Type Culture Collection and sub-cultured according to instructions from the supplier. Cells were cultured in complete RPMI 1640 (containing 10% heat inactivated FBS, penicillin (100 units/ml) and streptomycin (100 μg/ml)), and maintained in log phase prior to experimental setup. Prior to the experiment, compounds were dissolved in dimethyl sulfoxide (DMSO) to generate a 30 mM stock. The compound stock was first pre-diluted in DMSO to 3, 0.34, 0.042 and 0.0083 mM intermediate concentrations and subsequently spotted using Echo550 liquid handler into an empty 384-well assay plate to achieve desired final concentration (e.g. 100, 33, 11, 3.7, 1.2, 0.41, 0.14, 0.046, 0.015, 0.0051, 0.0017 μM). DMSO was backfilled in the plate to achieve a final DMSO assay concentration of 0.37%. The plate was then sealed and stored at room temperature until required.
THP-1 cells were treated with PMA (Phorbol 12-myristate 13-acetate) (20 ng/ml) for 16-18 hours. On the day of the experiment the media was removed and adherent cells were detached with trypsin for 5 minutes. Cells were then harvested, washed with complete RPMI 1640, spun down, and resuspended in RPMI 1640 (containing 2% heat inactivated FBS, penicillin (100 units/ml) and streptomycin (100 μg/ml). The cells were plated in the 384-well assay plate containing the spotted compounds at a density of 50,000 cells/well (final assay volume 50 μl). Cells were incubated with compounds for 1 hour and then stimulated with gramicidin (5 μM) (Enzo) for 2 hours. Plates were then centrifuged at 340 g for 5 min. Cell free supernatant (40 μL) was collected using a 96-channel PlateMaster (Gilson) and the production of IL-1β was evaluated by HTRF (cisbio). The plates were incubated for 18 h at 4° C. and read using the preset HTRF program (donor emission at 620 nm, acceptor emission at 668 nm) of the SpectraMax i3x spectrophotometer (Molecular Devices, software SoftMax 6). A vehicle only control and a dose titration of CRID3 (100-0.0017 μM) were run concurrently with each experiment.
Procedure 2: IL-1β Production in PMA-Differentiated THP-1 Cells Stimulated with Gramicidin
THP-1 cells were purchased from the American Type Culture Collection and sub-cultured according to instructions from the supplier. Prior to experiments, cells were cultured in complete RPMI 1640 (containing 10% heat inactivated FBS, penicillin (100 units/ml) and streptomycin (100 μg/ml)), and maintained in log phase prior to experimental setup. Prior to the experiment THP-1 were treated with PMA (Phorbol 12-myristate 13-acetate) (20 ng/ml) for 16-18 hours. Compounds were dissolved in dimethyl sulfoxide (DMSO) to generate a 30 mM stock. On the day of the experiment the media was removed and adherent cells were detached with trypsin for 5 minutes. Cells were then harvested, washed with complete RPMI 1640, spun down, resuspended in RPMI 1640 (containing 2% heat inactivated FBS, penicillin (100 units/ml) and streptomycin (100 μg/ml). The cells were plated in a 384-well plate at a density of 50,000 cells/well (final assay volume 50 μl). Compounds were first dissolved in assay medium to obtain a 5× top concentration of 500 μM. 10 step dilutions (1:3) were then undertaken in assay medium containing 1.67% DMSO. 5× compound solutions were added to the culture medium to achieve desired final concentration (e.g. 100, 33, 11, 3.7, 1.2, 0.41, 0.14, 0.046, 0.015, 0.0051, 0.0017 μM). Final DMSO concentration was at 0.37%. Cells were incubated with compounds for 1 hour and then stimulated with gramicidin (5 μM) (Enzo) for 2 hours. Plates were then centrifuged at 340 g for 5 min. Cell free supernatant (40 μL) was collected using a 96-channel PlateMaster (Gilson) and the production of IL-1β was evaluated by HTRF (cisbio). […]

[1] = Homo sapiens, THP-1, hTHP-1 assay containing 2% fetal bovine serum, class symbols
[2] = Homo sapiens, THP-1, hTHP-1 assay containing 2% fetal bovine serum, given as numeric bound
[3] = hTHP-1 assay containing 2% fetal bovine serum, class symbols

IC50 [1] | IC50 [2] | SMILES | other results
5 to 30 µM | – | CC(C)c1ccc(F)c(C(C)C)c1CC(=O)N=S(N)(=O)c1ccc2c(cnn2C)c1 (single isomer, unassigned) [Example 198, (R) or (S)-N-(amino(1-methyl-1H-indazol-5-yl)(oxo)-λ^6-sulfaneylidene)-2-(3-fluoro-2,6-diisopropylphenyl)acetamide] | –
– | > 30 µM | CC(C)c1ccc(F)c(C(C)C)c1CC(=O)N=S(N)(=O)c1ccc2c(cnn2C)c1 (single isomer, unassigned) [Example 199, (S) or (R)-N-(amino(1-methyl-1H-indazol-5-yl)(oxo)-λ^6-sulfaneylidene)-2-(3-fluoro-2,6-diisopropylphenyl)acetamide] | –
1 to 5 µM | – | CC(C)c1ccc(F)c(C(C)C)c1CC(=O)N=S(N)(=O)c1ccc(CN(C)C)cn1 (single isomer, unassigned) [Example 200, (R) or (S)-N-(amino(5-((dimethylamino)methyl)pyridin-2-yl)(oxo)-λ^6-sulfaneylidene)-2-(3-fluoro-2,6-diisopropylphenyl)acetamide] | –
– | > 30 µM | CC(C)c1ccc(F)c(C(C)C)c1CC(=O)N=S(N)(=O)c1ccc(CN(C)C)cn1 (single isomer, unassigned) [Example 201, (S) or (R)-N-(amino(5-((dimethylamino)methyl)pyridin-2-yl)(oxo)-λ^6-sulfaneylidene)-2-(3-fluoro-2,6-diisopropylphenyl)acetamide] | –
– | – | CC(C)c1nc(-c2cccc(C(F)(F)F)c2)c(F)c(C(C)C)c1CC(=O)N=S(N)(=O)c1cnc(C(C)(C)O)s1 (single isomer, unassigned) [Example 202, N-(amino(2-(2-hydroxypropan-2-yl)thiazol-5-yl)(oxo)-λ^6-sulfaneylidene)-2-(5-fluoro-2,4-diisopropyl-6-(3-(trifluoromethyl)phenyl)pyridin-3-yl)acetamide] | IC50 [3]: 0.2 to 1 µM
1 to 5 µM | – | CC(C)c1ncc(F)c(C(C)C)c1CC(=O)N=S(N)(=O)c1ncc(C(C)(C)O)s1 (single isomer, unassigned) [Example 204, N-(amino(5-(2-hydroxypropan-2-yl)thiazol-2-yl)(oxo)-λ^6-sulfaneylidene)-2-(5-fluoro-2,4-diisopropylpyridin-3-yl)acetamide] | –
– | > 30 µM | CC(C)c1ncc(F)c(C(C)C)c1CC(=O)N=S(N)(=O)c1ncc(C(C)(C)O)s1 (single isomer, unassigned) [Example 205, (S) or (R)-N-(amino(5-(2-hydroxypropan-2-yl)thiazol-2-yl)(oxo)-λ^6-sulfaneylidene)-2-(5-fluoro-2,4-diisopropylpyridin-3-yl)acetamide] | –
0.2 to 1 µM | – | CC(C)c1ncc(F)c(C(C)C)c1CC(=O)N=S(N)(=O)c1nc(C(C)(C)O)cs1 (single isomer, unassigned) [Example 206, N-(amino(4-(2-hydroxypropan-2-yl)thiazol-2-yl)(oxo)-λ^6-sulfaneylidene)-2-(5-fluoro-2,4-diisopropylpyridin-3-yl)acetamide] | –
– | > 30 µM | CC(C)c1ncc(F)c(C(C)C)c1CC(=O)N=S(N)(=O)c1nc(C(C)(C)O)cs1 (single isomer, unassigned) [Example 207, (S) or (R)-N-(amino(4-(2-hydroxypropan-2-yl)thiazol-2-yl)(oxo)-λ^6-sulfaneylidene)-2-(5-fluoro-2,4-diisopropylpyridin-3-yl)acetamide] | –
– | – | CC(C)c1ncc(F)c(C(C)C)c1CC(=O)N=S(N)(=O)c1sc(C(C)(C)O)cc1F (single isomer, unassigned) [Example 211, N-(amino(3-fluoro-5-(2-hydroxypropan-2-yl)thiophen-2-yl)(oxo)-λ^6-sulfaneylidene)-2-(5-fluoro-2,4-diisopropylpyridin-3-yl)acetamide] | IC50 [3]: 0.2 to 1 µM
– | > 30 µM | CC(C)c1cc2c(c(C(C)C)c1CC(=O)N=S(N)(=O)c1cnc(C(C)(C)O)s1)CCC2 (single isomer, unassigned) [Example 212, (R) or (S)-N-(amino(2-(2-hydroxypropan-2-yl)thiazol-5-yl)(oxo)-λ^6-sulfaneylidene)-2-(4,6-diisopropyl-2,3-dihydro-1H-inden-5-yl)acetamide] | –
1 to 5 µM | – | CC(C)c1cc2c(c(C(C)C)c1CC(=O)N=S(N)(=O)c1cnc(C(C)(C)O)s1)CCC2 (single isomer, unassigned) [Example 213, (S) or (R)-N-(amino(2-(2-hydroxypropan-2-yl)thiazol-5-yl)(oxo)-λ^6-sulfaneylidene)-2-(4,6-diisopropyl-2,3-dihydro-1H-inden-5-yl)acetamide] | –
5 to 30 µM | – | CC(C)c1cc2c(c(C(C)C)c1CC(=O)N=S(N)(=O)c1ccn(C(C)C)n1)COC2 (single isomer, unassigned) [Example 218, (R) or (S)-N-(amino(1-isopropyl-1H-pyrazol-3-yl)(oxo)-λ^6-sulfaneylidene)-2-(4,6-diisopropyl-1,3-dihydroisobenzofuran-5-yl)acetamide] | –
– | > 30 µM | CC(C)c1cc2c(c(C(C)C)c1CC(=O)N=S(N)(=O)c1ccn(C(C)C)n1)COC2 (single isomer, unassigned) [Example 219, (S) or (R)-N-(amino(1-isopropyl-1H-pyrazol-3-yl)(oxo)-λ^6-sulfaneylidene)-2-(4,6-diisopropyl-1,3-dihydroisobenzofuran-5-yl)acetamide] | –
– | – | CC(C)c1cc(F)cc(C(C)C)c1CC(=O)N=S(N)(=O)c1ccc(C(C)(C)O)cc1 (stereo not drawn) [Compound 131] | IC50 [3]: 5 to 30 µM
– | > 17 µM | CC(C)(O)c1ncc(S(N)(=O)=NC(=O)Cc2cc3c(c4c2CCC4)CCC3)s1 (stereo not drawn) [Compound 259] | –
5 to 30 µM | – | CC(C)(O)c1ncc([S@@](N)(=O)=NC(=O)Cc2cc3c(c4c2CCC4)CCC3)s1 [Compound 259a] | –
– | > 30 µM | CC(C)(O)c1ncc([S@](N)(=O)=NC(=O)Cc2cc3c(c4c2CCC4)CCC3)s1 [Compound 259b] | –
– | > 30 µM | CC(C)(O)c1ncc([S@@](N)(=O)=NC(=O)Cn2c3ccccc3c3ccccc32)s1 [Compound 262a] | –
5 to 30 µM | – | CC(C)(O)c1ncc([S@](N)(=O)=NC(=O)Cn2c3ccccc3c3ccccc32)s1 [Compound 262b] | –
5 to 30 µM | – | CC(C)(O)c1cnc(S(N)(=O)=NC(=O)Cc2c3c(cc4c2CCC4)CCC3)s1 (stereo not drawn) [Example 4, 2-(1,2,3,5,6,7-Hexahydro-s-indacen-4-yl)-N-(5-(2-hydroxypropan-2-yl)thiazol-2-ylsulfonimidoyl)acetamide] | –
0.2 to 1 µM | – | CC(C)c1cc(F)cc(C(C)C)c1CC(=O)N=S(N)(=O)c1ncc(C(C)(C)O)s1 (stereo not drawn) [Example 7, 2-(4-Fluoro-2,6-diisopropylphenyl)-N-(5-(2-hydroxypropan-2-yl)thiazole-2-sulfonimidoyl)acetamide] | –
5 to 30 µM | – | CC(C)c1cc(F)cc(C(C)C)c1CC(=O)N=S(=O)(NC(=O)Cc1c(C(C)C)cc(F)cc1C(C)C)c1ncc(C(C)(C)O)s1 (stereo not drawn) [Example 10, N,N-(5-(2-hydroxypropan-2-yl)thiazol-2-ylsulfinyl)bis(2-(4-fluoro-2,6-diisopropylphenyl)acetamide)] | –
5 to 30 µM | – | CNS(=O)(=NC(=O)Cc1c(C(C)C)cc(F)cc1C(C)C)c1ncc(C(C)(C)O)s1 (stereo not drawn) [Example 11, 2-(4-Fluoro-2,6-diisopropylphenyl)-N-(5-(2-hydroxypropan-2-yl)-N-methylthiazole-2-sulfonimidoyl)acetamide] | –
